From ChEMBL document CHEMBL1157067, “Agelastatin E, agelastatin F, and benzosceptrin C from the marine sponge Agelas dendromorpha” (2010)
Active and inactive are the calls of the source. The rule behind the calls is not given here.

Tested on: KB
Test: Cytotoxicity against human KB cells at 3 uM
Type: functional

Question: CN1C(=O)N[C@H]2[C@@H]3NC(=O)c4ccc(Br)n4[C@@H]3C[C@]21O [AGELASTATIN A] was tested. Which Activity did it give?
Answer: The Activity was 100%.

Tested on: KB
Test: Cytotoxicity against human KB cells at 30 uM
Type: functional

Question: c1ccc2c(-c3c[nH]c(-c4c[nH]c5ccccc45)n3)c[nH]c2c1 was tested. Which Activity did it give?
Answer: Its Activity is “inactive”.

Question: With O=C1N[C@H]2[C@@H]3NC(=O)c4ccc(Br)n4[C@@H]3C[C@@]2(O)N1 as the molecule, how does the Activity read?
Answer: The Activity was “inactive”.

Question: With NC(=O)c1cc(Br)c(Br)[nH]1 as the molecule, how does the Activity read?
Answer: The Activity was “inactive”.

Question: For Nc1nc([C@H]2[C@H](CNC(=O)c3cc(Br)c[nH]3)[C@@H](CNC(=O)c3cc(Br)c[nH]3)[C@@H]2c2c[nH]c(N)n2)c[nH]1, which Activity is on record?
Answer: The Activity was “inactive”.

Question: With CN1C(=O)N[C@H]2[C@@H]3NC(=O)c4ccc(Br)n4[C@@H]3C[C@]21O [AGELASTATIN A] as the molecule, how does the Activity read?
Answer: Its Activity is 100%.

Question: Which Activity does the source give for N=C1N=C(NCCS(=O)(=O)O)/C(=C/C(O)CNC(=O)c2cc(Br)c(Br)[nH]2)N1 (centres undefined) here?
Answer: The Activity was “inactive”.

Question: Which Activity does the source give for Cc1c[nH]c(=O)[nH]c1=O here?
Answer: Its Activity is “inactive”.

Question: How did the Activity turn out when Nc1nc2c([nH]1)c1c(c3[nH]c(N)nc32)[C@H](CNC(=O)c2cc(Br)c(Br)[nH]2)[C@H]1CNC(=O)c1cc(Br)c(Br)[nH]1 was run?
Answer: Its Activity is “inactive”.

Question: C[C@]1(COC(=O)c2cc(Br)c[nH]2)C[C@@H](C(=O)O)N=CN1 was tested. Which Activity did it give?
Answer: The Activity was “inactive”.

Question: How did the Activity turn out when O=C1N[C@H]2[C@@H]3NC(=O)c4cc(Br)c(Br)n4[C@@H]3C[C@@]2(O)N1 was run?
Answer: Its Activity is “inactive”.

Question: For CO[C@@]12C[C@@H]3[C@@H](NC(=O)c4ccc(Br)n43)[C@@H]1NC(=O)N2C, which Activity is on record?
Answer: Its Activity is “inactive”.

Question: For O=C1NCC(O)n2c1cc(Br)c2Br (centres undefined), which Activity is on record?
Answer: The Activity was “inactive”.

Question: How did the Activity turn out when N=C1N=C(NCCS(=O)(=O)O)/C(=C/CCNC(=O)c2cc(Br)c(Br)[nH]2)N1 was run?
Answer: Its Activity is “inactive”.
